One assay deals with U2OS (Bone) cells. Nature of the assay: cells. The class given is cell-based, human. The protocol:
(§1) An MTT (2-(4,5-dimethylthiazol-2-yl)−2,5-diphenyltetrazolium bromide) assay was used to determine the cytotoxicity of lapcin towards diverse cancer cell lines. Lapcin was dissolved in DMSO to make a 3.2 mg/mL working solution. For each cancer line detailed in Supplementary Table 5, cells at 80-90% confluency were counted and seeded in 96-well, flat bottom microplates and incubated at 37 °C with a 5% CO2 atmosphere. Outer wells were unused to avoid edge effects. After adhering for 24 h, the medium was sterilely aspirated and replaced with 100 µL of fresh medium containing lapcin or a control compound serially diluted at concentrations ranging from 8,000 to 0.00382 ng/mL. After 48 h (37 °C, 5% CO2), the medium was carefully removed and 110 µL of freshly prepared MTT solution (10 µL of 5 mg/mL MTT in PBS (pH 7.4) premixed with 100 µL of complete medium) was added to each well. After 3 h at 37 °C with 5% CO2, 100 µL of solubilization solution (40% DMF, 16% SDS and 2% acetic acid in H2O) was added to each well and precipitated formazan crystals were allowed to dissolve for 4 h. The absorbance of each well was then measured at 570 nm using a Tecan microplate reader.

A further assay relates to MCF 7 cells. Nature of the assay: cells. The class given is cell-based, human. To be noted: breast cancer; MTT, 48 h, 37 °C; DMEM + 10% FBS; 8,000 cells/well; absorbance 570 nm; n = 3 biologically independent. As for the experimental part:
as §1

In a further assay the test system is Hela (Cervical) cells. As to the kind of experiment: cells. The format is cell-based, human. To be noted: cervical cancer; MTT, 48 h, 37 °C; DMEM + 10% FBS; 2,500 cells/well; absorbance 570 nm; n = 3 biologically independent. The protocol:
as §1

In a further assay the test system is A549 cells. Nature of the assay: cells. Particulars: lung cancer; MTT, 48 h, 37 °C; DMEM + 10% FBS + NEAA; 2,500 cells/well; absorbance 570 nm; n = 3 biologically independent. The class given is cell-based, human. The protocol: as §1
For a further assay, the system named is HT29 cells. Nature of the assay: cells. The class given is cell-based, human. To be noted: colon cancer; MTT, 48 h, 37 °C; DMEM + 10% FBS; 2,500 cells/well; absorbance 570 nm; n = 3 biologically independent. As for the experimental part: as §1
Another assay has as its system NCI-H1299 cells. As to the kind of experiment: cells. The class given is cell-based, human. Particulars: lung cancer; MTT, 48 h, 37 °C; RPMI-1640 + 10% FBS; 2,500 cells/well; absorbance 570 nm; n = 3 biologically independent. The protocol:
as §1

For a further assay, the target named is T1, Human Topo II (Homo sapiens, UniProt P11388).
T1 construct: purchased TopoGen, USA
T1 sequence (P11388 whole entry): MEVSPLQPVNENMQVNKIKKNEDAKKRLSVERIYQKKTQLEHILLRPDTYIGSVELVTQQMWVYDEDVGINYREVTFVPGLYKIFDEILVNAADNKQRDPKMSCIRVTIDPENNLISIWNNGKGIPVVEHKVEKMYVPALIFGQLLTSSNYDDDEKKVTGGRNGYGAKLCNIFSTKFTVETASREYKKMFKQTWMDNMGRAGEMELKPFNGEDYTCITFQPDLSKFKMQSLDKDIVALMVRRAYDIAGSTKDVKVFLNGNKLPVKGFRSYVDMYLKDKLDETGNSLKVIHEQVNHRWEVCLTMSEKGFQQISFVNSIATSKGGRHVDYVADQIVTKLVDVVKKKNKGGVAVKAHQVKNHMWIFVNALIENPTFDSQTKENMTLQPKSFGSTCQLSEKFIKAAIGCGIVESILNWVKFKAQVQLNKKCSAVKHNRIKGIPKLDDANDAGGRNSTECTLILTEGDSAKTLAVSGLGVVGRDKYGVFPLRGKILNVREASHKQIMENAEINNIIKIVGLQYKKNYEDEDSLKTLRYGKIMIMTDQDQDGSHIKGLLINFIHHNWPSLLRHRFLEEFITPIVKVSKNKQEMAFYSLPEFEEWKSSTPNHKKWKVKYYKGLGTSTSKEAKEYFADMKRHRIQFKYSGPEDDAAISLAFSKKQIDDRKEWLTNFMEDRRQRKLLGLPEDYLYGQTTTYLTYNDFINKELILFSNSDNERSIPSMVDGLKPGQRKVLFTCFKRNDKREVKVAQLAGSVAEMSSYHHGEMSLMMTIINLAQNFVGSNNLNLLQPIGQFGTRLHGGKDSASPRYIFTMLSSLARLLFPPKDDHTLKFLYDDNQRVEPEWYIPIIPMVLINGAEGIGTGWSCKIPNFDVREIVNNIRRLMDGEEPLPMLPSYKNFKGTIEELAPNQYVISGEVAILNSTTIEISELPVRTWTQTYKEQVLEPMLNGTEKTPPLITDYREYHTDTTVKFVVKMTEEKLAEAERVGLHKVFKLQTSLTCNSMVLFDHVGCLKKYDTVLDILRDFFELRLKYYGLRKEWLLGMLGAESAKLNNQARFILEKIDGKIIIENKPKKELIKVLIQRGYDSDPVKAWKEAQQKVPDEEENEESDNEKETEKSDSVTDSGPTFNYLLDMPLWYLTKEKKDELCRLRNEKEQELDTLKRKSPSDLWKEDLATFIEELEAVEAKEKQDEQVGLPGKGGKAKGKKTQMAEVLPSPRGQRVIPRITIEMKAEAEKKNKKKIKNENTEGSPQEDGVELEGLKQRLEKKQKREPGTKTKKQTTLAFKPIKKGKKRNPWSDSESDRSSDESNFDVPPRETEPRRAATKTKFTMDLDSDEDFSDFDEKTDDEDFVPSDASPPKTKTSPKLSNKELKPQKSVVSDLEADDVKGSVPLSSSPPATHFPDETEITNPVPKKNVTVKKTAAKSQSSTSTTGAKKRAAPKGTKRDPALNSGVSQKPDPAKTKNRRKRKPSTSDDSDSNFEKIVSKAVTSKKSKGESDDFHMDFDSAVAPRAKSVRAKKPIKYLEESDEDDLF
Nature of the assay: Human Topoisomerase II DNA decatenation assay. The format is biochemical.

Procedure for Human Topo II: The decatenation assay was conducted using a Human Topo II decatenation kit (TopoGen, USA). […] Assays were performed according to the manufacturer’s protocol. Briefly, on ice, 19 µL of master mixture was prepared by adding 4 µL of freshly prepared 5 x assay buffer (0.5 M Tris-HCl pH8.0, 1.50 M NaCl, 100 mM MgCl2, 5 mM Dithiothreitol, 300 µg/mL BSA, 20 mM ATP), 1 µL of 200 ng/µL kDNA and 5 µL of serial diluted assay compounds in 200 µL reaction tubes. 1 µL of fresh diluted topoisomerase II (1U) was then added to each reaction tube. The total reaction volume was adjusted to 20 µL with H2O. These reactions were incubated at 37 °C for 30 min and stopped by addition of 4 µL of 5 x Stop Buffer (TopoGen, USA). Samples were loaded directly onto a 1% (w/v) agarose gel containing 0.5 µg/ml ethidium bromide and separated at 140 v for 1 hour in 0.5% TBE buffer. The intensity of released (decatenated) circular rings was quantified using Analytik Jena image software. All values were normalized to the negative control wells. The intensity of decatenated band was used in the determination of IC50 of tested compounds and the curve was drawn in Prism 9 (9.0.0). All experiments were performed in triplicate (n = 3).

Take `CCCCCCCCCCCC(O)CC(=O)N[C@@H](C)C(=O)N[C@@H](CO)C(=O)N[C@@H](C)C(=O)Nc1ccc(-c2nc(-c3nc(C(=O)N[C@@H](CC(N)=O)C(=O)Nc4ccc(C(=O)Nc5ccc(C(=O)Nc6ccc(C(=O)O)cc6)c(O)c5OC(C)C)cc4)cs3)cs2)cc1` (stereo partly drawn) [Lapcin, 4-(4-(4-((2S)-4-amino-2-(2'-(4-((2S)-2-((2S)-3-hydroxy-2-((2S)-2-(3-hydroxytetradecanamido)propanamido)propanamido)propanamido)phenyl)-[2,4'-bithiazole]-4-carboxamido)-4-oxobutanamido)benzamido)-2-hydroxy-3-isopropoxybenzamido)benzoic acid]: the IC50 (usually the point on the concentration scale where inhibition reaches its midpoint) in the assay with U2OS (Bone) cells (bone cancer, MTT, 48 h, 37 °C, DMEM + 10% FBS + NEAA, 2,500 cells/well, absorbance 570 nm, n = 3 biologically independent) came to 1.29 nM; in the assay with MCF 7 cells it was 35.1 nM; with Hela (Cervical) cells, 0.986 nM; in the assay on A549 cells, 2.66 nM; in the assay with HT29 cells it was 0.516 nM; in the assay with NCI-H1299 cells it was 0.0168 nM. The compound further came in with a half-inhibitory concentration (IC50) against Human Topo II (kDNA, 1 U enzyme, 30 min, 37 °C, gel, ethidium bromide, n = 3) of 7530 nM. The “activity against U2OS in words” value in the assay with U2OS (Bone) cells (human bone osteosarcoma epithelial cell line U2OS) is “retained potent activity”. Further, the “fold more potent than etoposide, topoisomerase II” value on Human Topo II is given as roughly 15 times.

Values taken from publication PMC8837603, “Lapcin, a potent dual topoisomerase I/II inhibitor discovered by soil metagenome guided total chemical synthesis” (Nature Communications, 2022).
